Source: patent US20240400521A1, “QUINAZOLINE COMPOUND, COMPOSITION, AND APPLICATION THEREOF” (BEIJING SCITECH-MQ PHARMACEUTICALS LIMITED, priority 2021, published 2024)
Read-outs that look alike come from different tables or passages of the source.

Tests used:
[1] = molecular target: Ba/F3-EGFR-VIII cells (Homo sapiens, UniProt P00533, DELINS30-297G, cells depend on it); assay: Inhibition of cell proliferation, CTG method, Ba/F3-EGFR-VIII; type: cell-based; conditions: 72 hours, read-out: Ba/F3 EGFRvIII IC50
Description: (§1) The present application examined the in vitro anti-proliferative activity of the compounds of the present disclosure against in vitro cultured HCC-827, Ba/F3-EGFR-VIII and Ba/F3 EGFR D770_N771insSVD cell lines by CTG method.
(§2) Reagents and consumables: RPMI1640 (ThermoFisher, Cat. No. C11875500BT); DMEM (ThermoFisher, C11995500BT); fetal bovine serum (Hyclone, Cat. No. SV30087.03); 0.25% trypsin-EDTA (ThermoFisher, Cat. No. 25200072); penicillin-streptomycin (Hyclone, Cat. No. SV30010); DMSO (Life Science, Cat. No. 0231-500ML); CTG assay kit (Promega, Cat. No. G9243); 96-well plate (Corning, Cat. No. 3599); multifunctional plate reader (Perkin Elmer, Cat. No. Envision)
(§3) Cell lines: HCC-827 (from ATCC), Ba/F3-EGFR-VIII and Ba/F3 EGFR D770_N771insSVD (all from KYinno Biotechnology (Beijing) Co., Ltd.); all of the above cells were cultured with RPMI1640 medium containing 10% fetal bovine serum, 100 U/mL penicillin, and 100 μg/mL streptomycin in the culture process, and HCC-827 was cultured with DMEM medium containing 10% fetal bovine serum, 100 U/mL penicillin, and 100 μg/mL streptomycin.
(§4) • 1. The assay compound was dissolved with DMSO to form a stock solution and a gradient dilution was performed, followed by dilution with the corresponding medium to obtain a solution with 5-fold working concentration. • 2. Cells in logarithmic growth phase were adjusted to specific cell densities by dilution with culture medium, and 80 μL of cell suspension was added to a 96-well plate, such that plating densities of cells of HCC-827, Ba/F3-EGFR-VIII and Ba/F3 EGFR D770_N771insSVD were all 3000 cells/well. The cells of Ba/F3-EGFR-VIII and Ba/F3 EGFR D770_N771insSVD were used directly in the next step (treatment with compound), whereas the HCC-827 needed to be cultured overnight in a 37° C., 5% carbon dioxide gas incubator to adhere to the wall, and then treated with compounds. • 3. 20 μL of compound solution was added to each well of the 96-well plate that had been inoculated with cells. The highest concentration of the assayed compound was 10 μM, 4-fold serial dilution, a total of 9 concentrations, and duplicate wells. A control group without compound was also set up. • 4. The cells were cultured for another 72 hours, and then cell viability was detected by CTG assay kit. Signal values were read with a multifunctional plate reader (Perkin Elmer). GraphPad Prism software was used to create a dose-response curve and IC50 was calculated.

[2] = Pharmacokinetics in SD rats after single oral and intravenous administration; type: in vivo; conditions: rat; for concentration at 0 hr: time point 0 hr; for concentration at 0.25 hr: time point 0.25 hr; for concentration at 0.5 hr: time point 0.5 hr; for concentration at 1 hr: time point 1 hr; for concentration at 2 hr: time point 2 hr; for concentration at 4 hr: time point 4 hr; for concentration at 7 hr: time point 7 hr
Method: (§5) In this assay, the pharmacokinetic characteristics and ability to penetrate the blood-brain barrier of the compounds of the present application were assayed after administration of some of the compounds of the present application to SD rats by single oral administration and intravenous injection.
(§6) • 1. Intravenous (IV) injection group: an appropriate amount of the assay compound was weighed, and completely dissolved in an appropriate volume of vehicle (DMSO/Solutol/H2O=5/10/85 V/V/V with 2 times mole of HCl). The mixture was stirred, vortexed and/or sonicated. Once a solution was obtained, the vehicle was gradually added to a final volume to reach the target concentration. The solution was vortexed, and sonicated to obtain a homogeneous solution. The solution was filtered through a 0.22 μm PVDF membrane. • 2. Oral (PO) group: an appropriate amount of the assay compound was weighed, and completely dissolved in an appropriate volume of vehicle (DMSO/Solutol/H2O=5/10/85 V/V/V with 2 times mole of HCl). The mixture was stirred, vortexed and/or sonicated. Once a solution was obtained, the vehicle was gradually added to a final volume to reach the target concentration. The solution was vortexed, and sonicated to obtain a homogeneous solution. (iii) Administration and Sampling of Rats
(§7) Meanwhile, the IV group was not fasted and the PO group was fasted overnight (>12 hrs) and given food 2 hrs after drug administration. All animals had free access to water. The dosing regimen and pharmacokinetic sampling regimen are given in Table 6 and Table 7 below, respectively.
(§8) Rats were administered according to the above regimen, and blood and brain tissue samples were collected and processed at predetermined time points (collection and processing were performed according to conventional methods in the art).
(§9) Brains were weighed and homogenized by adding 4-fold homogenizing solution (acetonitrile/water=1/1). Six times volume of acetonitrile was added respectively to the whole blood samples and brain homogenate. The mixture was vortexed for 1 min and then centrifuged at 4° C., 4500 rpm for 15 min. The supernatant was diluted 2-fold with ultra-pure water, and the samples were analyzed by LC/MS.
Pharmacokinetic parameters were calculated using WinNonlin software. The following pharmacokinetic parameters were calculated if appropriate plasma drug concentration-time data were available: CL (clearance); Vd (apparent volume of distribution); T1/2 (elimination half-life time); Cmax (peak concentration); Tmax (time to peak); AUC (area under plasma drug concentration-time curve); MRT (mean retention time); F % (bioavailability).

[3] = molecular target: Ba/F3 EGFR D770_N771insSVD cells (Homo sapiens, UniProt P00533, DUP768-770, cells depend on it); assay: Inhibition of cell proliferation, CTG method, Ba/F3 EGFR D770_N771insSVD; type: cell-based; conditions: 72 hours, read-out: Ba/F3 EGFR D770_N771insSVD IC50
Description: as §1, §2, §3, §4

[4] = Ability to penetrate the blood-brain barrier: brain and whole blood concentration in SD rats; type: in vivo; conditions: rat
Method: as §5, §6, §7, §8, §9

[5] = SD, plasma, IV 3 mg/kg, read-out: Plasma drug concentration
[6] = SD, plasma, PO 10 mg/kg, read-out: Plasma drug concentration

Ba/F3-EGFR-VIII cells, sequence (P00533 with tags, fused parts or gaps DELINS30-297G): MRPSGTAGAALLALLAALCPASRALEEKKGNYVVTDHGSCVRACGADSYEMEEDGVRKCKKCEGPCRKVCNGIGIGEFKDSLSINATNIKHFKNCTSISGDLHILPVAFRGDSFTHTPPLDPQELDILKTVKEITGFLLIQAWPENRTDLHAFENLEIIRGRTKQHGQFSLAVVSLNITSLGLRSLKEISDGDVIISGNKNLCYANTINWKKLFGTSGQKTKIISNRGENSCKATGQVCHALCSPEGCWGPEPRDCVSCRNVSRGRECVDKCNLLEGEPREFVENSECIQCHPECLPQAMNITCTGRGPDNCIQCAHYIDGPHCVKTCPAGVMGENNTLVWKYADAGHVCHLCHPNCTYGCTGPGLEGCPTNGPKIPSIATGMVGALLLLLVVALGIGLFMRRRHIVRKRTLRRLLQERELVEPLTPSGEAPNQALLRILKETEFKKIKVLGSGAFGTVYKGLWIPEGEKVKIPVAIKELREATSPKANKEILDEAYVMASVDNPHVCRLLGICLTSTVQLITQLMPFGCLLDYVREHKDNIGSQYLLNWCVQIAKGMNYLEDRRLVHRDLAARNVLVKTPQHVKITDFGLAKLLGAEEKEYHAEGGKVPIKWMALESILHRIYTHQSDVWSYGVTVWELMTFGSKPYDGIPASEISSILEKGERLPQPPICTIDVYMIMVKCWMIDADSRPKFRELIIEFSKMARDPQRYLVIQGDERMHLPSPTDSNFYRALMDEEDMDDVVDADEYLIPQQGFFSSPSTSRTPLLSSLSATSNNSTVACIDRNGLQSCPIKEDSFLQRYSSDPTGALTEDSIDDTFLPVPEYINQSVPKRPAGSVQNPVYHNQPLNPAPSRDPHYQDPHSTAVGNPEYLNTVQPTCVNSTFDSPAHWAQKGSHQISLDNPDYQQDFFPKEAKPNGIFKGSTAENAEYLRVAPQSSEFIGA
Ba/F3 EGFR D770_N771insSVD cells, sequence (P00533 with tags, fused parts or gaps DUP768-770): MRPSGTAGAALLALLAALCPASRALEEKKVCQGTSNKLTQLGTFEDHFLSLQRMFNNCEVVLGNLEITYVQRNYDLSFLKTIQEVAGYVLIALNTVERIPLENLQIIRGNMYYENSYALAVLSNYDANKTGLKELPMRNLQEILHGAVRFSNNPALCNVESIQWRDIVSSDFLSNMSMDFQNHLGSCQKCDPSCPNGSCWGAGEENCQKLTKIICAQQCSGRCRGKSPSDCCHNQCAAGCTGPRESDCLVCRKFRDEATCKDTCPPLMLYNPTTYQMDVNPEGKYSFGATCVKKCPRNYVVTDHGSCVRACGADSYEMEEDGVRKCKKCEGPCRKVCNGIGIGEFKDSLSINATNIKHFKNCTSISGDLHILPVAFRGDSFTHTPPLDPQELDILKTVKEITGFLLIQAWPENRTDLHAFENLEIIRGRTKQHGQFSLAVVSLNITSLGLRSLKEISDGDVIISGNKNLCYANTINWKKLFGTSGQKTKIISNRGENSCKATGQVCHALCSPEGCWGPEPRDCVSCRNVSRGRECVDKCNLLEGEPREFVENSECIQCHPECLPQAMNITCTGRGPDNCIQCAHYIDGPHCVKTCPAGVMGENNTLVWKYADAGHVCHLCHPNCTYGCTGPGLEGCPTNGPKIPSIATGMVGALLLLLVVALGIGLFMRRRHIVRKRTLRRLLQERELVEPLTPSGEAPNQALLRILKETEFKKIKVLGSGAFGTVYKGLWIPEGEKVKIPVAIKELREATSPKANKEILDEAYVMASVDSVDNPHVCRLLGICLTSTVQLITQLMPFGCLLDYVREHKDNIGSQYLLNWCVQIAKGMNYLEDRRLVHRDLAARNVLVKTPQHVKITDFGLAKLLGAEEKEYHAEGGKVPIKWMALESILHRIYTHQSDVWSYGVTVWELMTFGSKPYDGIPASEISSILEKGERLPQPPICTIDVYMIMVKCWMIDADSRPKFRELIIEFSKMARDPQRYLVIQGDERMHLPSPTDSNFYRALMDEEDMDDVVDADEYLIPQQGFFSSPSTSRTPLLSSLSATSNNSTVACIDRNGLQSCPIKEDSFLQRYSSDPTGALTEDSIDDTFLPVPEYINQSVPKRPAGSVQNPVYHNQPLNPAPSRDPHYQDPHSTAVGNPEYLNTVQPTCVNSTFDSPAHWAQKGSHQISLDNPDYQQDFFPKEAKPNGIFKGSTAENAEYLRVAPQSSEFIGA

GI50 [1]: ≤ 5 nM
AUC(0-inf) ([2]; SD, plasma, IV 3 mg/kg): 724 ± 105 ng·h/mL
AUC(0-t) ([2]; SD, plasma, IV 3 mg/kg): 709 ± 96 ng·h/mL
Vd ([2]; SD, plasma, IV 3 mg/kg): 8.76 ± 0.67 L/kg
half-life ([2]; SD, plasma, IV 3 mg/kg): 1.45 ± 0.09 h
concentration at 0 hr [2, 5]: 0 ng/mL
concentration at 0.083 hr ([2]; SD, plasma, IV 3 mg/kg, time point 0.083 hr, read-out: Plasma drug concentration): 888 ± 106 ng/mL
concentration at 0.25 hr [2, 5]: 494 ± 121 ng/mL
concentration at 0.5 hr [2, 5]: 365 ± 48 ng/mL
concentration at 1 hr [2, 5]: 175 ± 23 ng/mL
concentration at 2 hr [2, 5]: 78.2 ± 28.7 ng/mL
concentration at 4 hr [2, 5]: 18.8 ± 8.7 ng/mL
concentration at 7 hr [2, 5]: 7.05 ± 3.77 ng/mL
AUC(0-inf) ([2]; SD, plasma, PO 10 mg/kg): 1780 ± 178 ng·h/mL
AUC(0-t) ([2]; SD, plasma, PO 10 mg/kg): 1730 ± 170 ng·h/mL
Cmax ([2]; SD, plasma, PO 10 mg/kg): 281 ± 73 ng/mL
Tmax ([2]; SD, plasma, PO 10 mg/kg): 1 h
bioavailability ([2]; SD, plasma, PO 10 mg/kg): 73.6 ± 7.4%
half-life ([2]; SD, plasma, PO 10 mg/kg): 3.17 ± 1.22 h
concentration at 0 hr [2, 6]: 0 ng/mL
concentration at 0.25 hr [2, 6]: 83.2 ± 29.9 ng/mL
concentration at 0.5 hr [2, 6]: 227 ± 58 ng/mL
concentration at 1 hr [2, 6]: 281 ± 73 ng/mL
concentration at 2 hr [2, 6]: 249 ± 74 ng/mL
concentration at 4 hr [2, 6]: 77.7 ± 7.3 ng/mL
concentration at 7 hr [2, 6]: 72.6 ± 25.5 ng/mL
concentration at 24 hr ([2]; SD, plasma, PO 10 mg/kg, time point 24 hr, read-out: Plasma drug concentration): 14.2 ± 19.7 ng/mL
Cl_obs ([2]; IV 3 mg/kg): 70.0 ± 9.5 mL/min/kg
GI50 [3]: 50 to 500 nM
Kp at 2 hours ([4]; SD, brain/blood, PO 10 mg/kg, 2 hours after administration, read-out: Brain/blood ratio): 3.06
concentration at 2 hours ([4]; SD, brain, PO 10 mg/kg, 2 hours after administration, read-out: Brain concentration): 1470 ng/g
concentration at 2 hours ([4]; SD, plasma, PO 10 mg/kg, 2 hours after administration, read-out: Plasma drug concentration): 480 ng/mL
Structure (SMILES): COc1c(NC(=O)/C=C/CN(C)C)ccc2ncnc(Nc3cccc(Cl)c3F)c12 [Example 1, (E)-N-(4-((3-chloro-2-fluorophenyl)amino)-5-methoxyquinazolin-6-yl)-4-(dimethylamino)but-2-enamide]
ability to penetrate the blood-brain barrier (in words) [4]: excellent ability to penetrate the blood-brain barrier
